Source: US20040121947A1, “Compounds which inhibit beta-secretase activity and methods of use thereof” (Oklahoma Medical Research Foundation, priority 2000, published 2004)
Like-named read-outs stand apart in the source and are kept apart here.

Assays:
[1] = target: T1, memapsin 1 (Homo sapiens, UniProt Q9Y5Z0); experiment: Inhibition of memapsin 1 proteolytic activity, fluorogenic substrate FS-2; type: biochemical; settings: for % Inhibition Mep1: enzyme concentration equals the compound concentration; for Ki: Table 9, read-out: Ki apparent Mep1
T1 construct: pET-11 vector-derived residues 1-14 of promemapsin 1-T1 (N, cleaved yes); made in house; host or cells: E. coli
T1 sequence (Q9Y5Z0 63-466 limits assumed): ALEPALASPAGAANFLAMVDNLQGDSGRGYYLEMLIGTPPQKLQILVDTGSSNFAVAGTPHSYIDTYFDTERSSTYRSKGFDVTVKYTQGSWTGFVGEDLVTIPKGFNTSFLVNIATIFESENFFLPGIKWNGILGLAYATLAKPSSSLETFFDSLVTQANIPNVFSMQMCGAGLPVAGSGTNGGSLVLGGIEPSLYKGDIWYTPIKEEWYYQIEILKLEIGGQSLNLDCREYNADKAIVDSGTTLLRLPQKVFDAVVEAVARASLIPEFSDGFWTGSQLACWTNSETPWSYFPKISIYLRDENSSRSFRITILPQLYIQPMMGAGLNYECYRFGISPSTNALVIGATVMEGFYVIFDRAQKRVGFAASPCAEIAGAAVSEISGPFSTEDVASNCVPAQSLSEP
Description: Vi/Vo depicts the ratio of initial cleavage velocities of the substrate FS-2 (Ermolieff, et al., Biochemistry […]:12450-12456 (2000)) by memapsin 1 or memapsin 2 in the absence (Vo) or presence (Vi) of a compound of the invention. […] The Vi/Vo values depicted in Table 1 were determined at conditions under which the enzyme and inhibitor concentrations were equal (e.g., about 80 nM, 100 nM).
The relationship of Ki (independent of substrate concentration) to Kiapp is a function of substrate concentration in the assay and the Km for cleavage of the substrate by either memapsin 1 or memapsin 2 by the relationship:
An aliquot of the inhibitor of known concentration in DMSO was diluted into 1.8 ml 0.1 M NaOAc, pH 4.0. DMSO and added to a final concentration of 10% (v/v), and memapsin 2 (final concentration of 80 nM), followed by a 20 minute equilibration at 37° C. Compounds were evaluated for the ability to inhibit memapsin 1 and memapsin 2 at concentrations between about 10 nM and about 10 μm of inhibitor.
The relationship of Ki (independent of substrate concentration) to Kiapp is a function of substrate concentration in the assay and the Km for cleavage of the substrate by either memapsin 1 or memapsin 2 by the relationship: […]

[2] = target: T2, memapsin 2 (Homo sapiens, UniProt P56817); experiment: Inhibition of memapsin 2 proteolytic activity, fluorogenic substrate FS-2; type: biochemical; settings: for % Inhibition Mep2: enzyme concentration equals the compound concentration; for % Inh (M1/M2): ratio of % inhibition memapsin 1 / memapsin 2, 1 or less = greater inhibition of memapsin 2; for Vi/Vo: ratio of initial cleavage velocities of FS-2 with/without compound, enzyme and inhibitor concentrations equal (e.g., about 80 nM, 100 nM)
T2 construct: pET-11 vector-derived residues 1-15 of promemapsin 2-T1 (N, cleaved yes); made in house; host or cells: E. coli
T2 sequence (P56817 41-454 limits assumed): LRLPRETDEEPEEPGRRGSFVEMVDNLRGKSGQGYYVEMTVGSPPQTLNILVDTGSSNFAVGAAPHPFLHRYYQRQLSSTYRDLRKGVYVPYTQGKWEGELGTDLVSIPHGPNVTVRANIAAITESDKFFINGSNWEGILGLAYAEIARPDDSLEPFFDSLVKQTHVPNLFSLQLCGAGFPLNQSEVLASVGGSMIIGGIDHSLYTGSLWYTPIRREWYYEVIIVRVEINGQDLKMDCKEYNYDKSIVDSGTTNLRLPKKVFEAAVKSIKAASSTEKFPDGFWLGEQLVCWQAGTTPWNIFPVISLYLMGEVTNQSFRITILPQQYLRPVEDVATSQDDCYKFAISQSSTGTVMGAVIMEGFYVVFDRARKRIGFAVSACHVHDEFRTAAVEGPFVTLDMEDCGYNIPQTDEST
Procedure, shortened: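 Spontaneously activated memapsin 2 (80 nM final) equilibrated with inhibitor (about 10 nM–10 μM) in 0.1 M NaOAc pH 4.0 with 10% DMSO for 20 min at 37 °C, with fluorogenic substrate FS-2. Ki converted from Ki apparent using substrate concentration and Km.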

[3] = memapsin 2, apparent Ki in presence of substrate FS-2, read-out: Ki app
[4] = memapsin 2, independent of substrate, converted from Ki apparent, read-out: Ki
[5] = Table 9, read-out: Ki apparent Mep2

With CSCC[C@H](NC(=O)[C@@H](NC(=O)OC(C)(C)C)C(C)C)C(=O)N[C@@H](CC(C)C)[C@@H](O)C[C@@H](CO)C(=O)N[C@H](C(=O)NCc1ccccc1)C(C)C [MMI-132] the “% Inhibition Mep1” value [1] was 61%, the “% Inhibition Mep2” value [2] was 47% and the Ki [2, 3] was 107 nM. The Ki [2, 4] was 67.1 nM, the “% Inh (M1/M2)” value [2] was 1.30 and the Vi/Vo [2] was 0.46.

CSCC[C@H](NC(=O)C(Cn1nc(C)cc1C)C(C)C)C(=O)N[C@@H](CC(C)C)[C@@H](O)C[C@@H](C)C(=O)N[C@H](C(=O)NCC(C)C)C(C)C (stereo partly shown) [MMI-204] gave a Ki [1] of 1030 nM, a Ki [2, 5] of 27.4 nM and a Ki [2, 3] of 27.4 nM. For the same molecule, the Ki [2, 4] was 17.1 nM.

With CSCC[C@H](NC(=O)C(C)Cn1nc(C)cc1C)C(=O)N[C@@H](CC(C)C)[C@@H](O)C[C@@H](C)C(=O)N[C@H](C(=O)NCC(C)C)C(C)C (stereo partly shown) [MMI-196] the Ki [1] was 351 nM, the Ki [2, 5] was 28.8 nM and the Ki [2, 3] was 28.8 nM. It also gave a Ki [2, 4] of 18 nM.

With Cc1cc(C)n(COC(=O)N[C@@H](CCS(C)(=O)=O)C(=O)N[C@@H](CC(C)C)[C@@H](O)C[C@@H](C)C(=O)N[C@H](C(=O)NCc2ccccc2)C(C)C)n1 [MMI-139] the “% Inhibition Mep1” value [1] was 0%, the “% Inhibition Mep2” value [2] was 50% and the “% Inh (M1/M2)” value [2] was 0. For the same molecule, the Vi/Vo [2] was 0.5.

CCCCNC(=O)[C@H](C(C)C)N1CC[C@@](C)(C[C@H](O)[C@H](CC(C)C)NC(=O)[C@H](CCSC)NC(=O)OCn2nc(C)cc2C)C1=O [MMI-182] was tested, and the “% Inhibition Mep1” value [1] was 0%, the Ki ([2]; Ki, [I] < 100, memapsin 2, [I] < 100 (nM)) was 72.7 nM and the “% Inhibition Mep2” value [2] was 34%. The Ki [2, 3] was 447 nM, the Ki [2, 4] was 280 nM and the “% Inh (M1/M2)” value [2] was 0. It also gave a Vi/Vo [2] of 0.66.

CSCC[C@H](NC(=O)[C@@H](NC(=O)OC(C)(C)C)C(C)C)C(=O)N[C@@H](CC(C)C)[C@@H](O)C[C@@H](CO)C(=O)N[C@H](C(=O)NCc1ccccc1)C(C)C [MMI-078] was tested, and the “% Inhibition Mep1” value ([1]; listed as 78) was 28%, the “% Inhibition Mep2” value ([2]; listed as 78) was 37% and the “% Inh (M1/M2)” value ([2]; listed as 78) was 0.76. It also gave a Vi/Vo [2] of 0.63.

With CSCC[C@H](NC(=O)OCn1nc(C)cc1C)C(=O)N[C@@H](CC(C)C)[C@@H](O)C[C@]1(C)CCN([C@@H](CC(C)C)C(=O)NCC(C)C)C1=O [MMI-181] the “% Inhibition Mep1” value [1] was 9%, the “% Inhibition Mep2” value [2] was 47% and the Ki [2, 3] was 393 nM. The Ki [2, 4] was 246 nM, the “% Inh (M1/M2)” value [2] was 0.19 and the Vi/Vo [2] was 0.53.

In the case of CC(C)C[C@H](NC(=O)[C@H](CS(C)(=O)=O)NC(=O)[C@@H](NC(=O)OC(C)(C)C)C(C)C)[C@@H](O)C[C@@H](C)C(=O)N[C@H](C(=O)NCc1ccccc1)C(C)C [MMI-026], the Ki [1] is reported as 44.7 nM, the Ki [2, 5] is reported as 15.9 nM and the Ki [2, 3] is reported as 16 nM. The Ki [2, 4] was 9.97 nM.

With CCCCNC(=O)[C@@H](NC(=O)[C@H](C)C[C@H](O)[C@H](CC(C)C)NC(=O)[C@H](CCSC)NC(=O)OCn1nc(C)cc1C)C(C)C [MMI-167] the “% Inhibition Mep1” value [1] was 8%, the “% Inhibition Mep2” value [2] was 44% and the Ki [2, 3] was 36.6 nM. The Ki [2, 4] was 22.8 nM, the “% Inh (M1/M2)” value [2] was 0.18 and the Vi/Vo [2] was 0.56.

For CSCC[C@H](NC(=O)[C@@H](NC(=O)OC(C)(C)C)C(C)C)C(=O)N[C@@H](CC(C)C)[C@@H](O)C[C@@H](C)C(=O)N[C@@H](CC(C)C)C(=O)NCc1ccco1 [MMI-116], the “% Inhibition Mep1” value [1] was 85%, the “% Inhibition Mep2” value [2] was 56% and the Ki [2, 3] was 49 nM. The Ki [2, 4] was 30.6 nM, the “% Inh (M1/M2)” value [2] was 1.52 and the Vi/Vo [2] was 0.29.

With CSCC[C@H](NC(=O)[C@@H](NC(=O)OC(C)(C)C)C(C)C)C(=O)N[C@@H](CC(C)C)[C@@H](O)C[C@@H](C)C(=O)N[C@H](C(=O)NCc1ccccc1)C(C)C [MMI-017] the Ki [1] was 1.2 nM, the Ki [2, 5] was 3.9 nM and the Ki [2, 3] was 3.9 nM. It also gave a Ki [2, 4] of 2.4 nM.

With CSCC[C@H](NC(=O)OCn1nc(C)cc1C)C(=O)N[C@@H](CC(C)C)[C@@H](O)C[C@@H](C)C(=O)N[C@@H](CC(C)C)C(=O)NC(CF)CF [MMI-171] the “% Inhibition Mep1” value [1] was 8%, the “% Inhibition Mep2” value [2] was 45% and the Ki [2, 3] was 63.9 nM. The Ki [2, 4] was 40 nM, the “% Inh (M1/M2)” value [2] was 0.18 and the Vi/Vo [2] was 0.55.

In the case of CSCC[C@H](NC(=O)OCn1nc(C)cc1C)C(=O)N[C@@H](CC(C)C)[C@@H](O)C[C@@H](C)C(=O)N[C@H](C(=O)NCC(C)C)C(C)C [MMI-156], the “% Inhibition Mep1” value [1] is reported as 32%, the “% Inhibition Mep2” value [2] is reported as 68% and the Ki [2, 3] is reported as 3.03 nM. For the same molecule, the Ki [2, 4] was 1.89 nM, the “% Inh (M1/M2)” value [2] was 0.47 and the Vi/Vo [2] was 0.32.

For CC(C)C[C@H](NC(=O)[C@H](CCS(C)(=O)=O)NC(=O)[C@@H](NC(=O)OC(C)(C)C)C(C)C)[C@@H](O)C[C@@H](C)C(=O)N[C@@H](C(=O)NCc1ccccc1)[C@@H](C)O [MMI-073], the “% Inhibition Mep1” value [1] was 38%, the “% Inhibition Mep2” value [2] was 52% and the “% Inh (M1/M2)” value [2] was 0.73. For the same molecule, the Vi/Vo [2] was 0.48.

With CSCC[C@H](NC(=O)[C@H](CC(C)C)NC(=O)OC(C)(C)C)C(=O)N[C@@H](CC(C)C)[C@@H](O)C[C@@H](C)C(=O)N[C@H](C(=O)NCC(C)C)C(C)C [MMI-134] the “% Inhibition Mep1” value [1] was 98%, the “% Inhibition Mep2” value [2] was 81% and the Ki [2, 3] was 3.48 nM. For the same molecule, the Ki [2, 4] was 2.18 nM and the “% Inh (M1/M2)” value [2] was 1.21.

In the case of CSCC[C@H](NC(=O)OCCn1nc(C)cc1C)C(=O)N[C@@H](CC(C)C)[C@@H](O)C[C@@H](C)C(=O)N[C@@H](CC(C)C)C(=O)NCC(C)C [MMI-176], the “% Inhibition Mep1” value [1] is reported as 0%, the “% Inhibition Mep2” value [2] is reported as 47% and the Ki [2, 3] is reported as 111 nM. The Ki [2, 4] was 69.1 nM, the “% Inh (M1/M2)” value [2] was 0 and the Vi/Vo [2] was 1.

CSCC[C@H](NC(=O)OCCn1nc(C(C)C)cc1C(C)C)C(=O)N[C@@H](CC(C)C)[C@@H](O)C[C@@H](C)C(=O)N[C@H](C(=O)NCC(C)C)C(C)C [MMI-180] was tested, and the “% Inhibition Mep1” value [1] was 0%, the “% Inhibition Mep2” value [2] was 26% and the “% Inh (M1/M2)” value [2] was 0. For the same molecule, the Vi/Vo [2] was 0.74.

With CSCC[C@H](NC(=O)[C@@H](NC(=O)OC(C)(C)C)C(C)C)C(=O)N[C@@H](CC(C)C)[C@@H](O)C[C@@H](CC(C)C)C(=O)NC1CCN(Cc2ccccc2)CC1 [MMI-036] the Ki app ([2]; memapsin 2, apparent Ki in presence of substrate FS-2) was “N.I” and the Ki ([2]; memapsin 2, independent of substrate, converted from Ki apparent) was “N.I”.

With CSCC[C@H](NC(=O)[C@@H](NC(=O)OC(C)(C)C)C(C)C)C(=O)N[C@@H](CC(C)C)[C@@H](O)C[C@H](C)NC(=O)[C@@H](NC(=O)OCc1ccccc1)C(C)C [MMI-168] the Vi/Vo [2] was 0.75.

CSCC[C@H](NC(=O)[C@H](CC(C)C)NC(=O)OC(C)(C)C)C(=O)N[C@@H](CC(C)C)[C@H](O)C[C@H](C)C(=O)N[C@H](C(=O)NCc1ccccc1)C(C)C [MMI-133] showed a Ki [2, 3] of 0.52 nM, a Ki [2, 4] of 0.33 nM and a Vi/Vo [2] of 0.09.

CSCC[C@@H](COC(=O)N[C@@H](CC(C)C)[C@@H](O)C[C@@H](C)C(=O)N[C@H](C(=O)NCc1ccccc1)C(C)C)NC(=O)[C@@H](NC(=O)OC(C)(C)C)C(C)C [MMI-114] was tested, and the Ki [2, 3] was 441 nM and the Ki [2, 4] was 276 nM.
